Experimental data taken from patent US20050064050A1 (priority 1999, published 2005).

Columns and labels:
[1] = biological target: botulinum neurotoxin (BoNT/A) (Clostridium botulinum, UniProt P0DPI0); parameters: key to BoNT neutralization effects of tea-leaf extract ingredients: Effect: +: Effective in neutralization; −: Ineffective in neutralization
[2] = system: mouse; conditions: in vivo, po

Chain of botulinum neurotoxin (BoNT/A) (P0DPI0 whole entry, looked up): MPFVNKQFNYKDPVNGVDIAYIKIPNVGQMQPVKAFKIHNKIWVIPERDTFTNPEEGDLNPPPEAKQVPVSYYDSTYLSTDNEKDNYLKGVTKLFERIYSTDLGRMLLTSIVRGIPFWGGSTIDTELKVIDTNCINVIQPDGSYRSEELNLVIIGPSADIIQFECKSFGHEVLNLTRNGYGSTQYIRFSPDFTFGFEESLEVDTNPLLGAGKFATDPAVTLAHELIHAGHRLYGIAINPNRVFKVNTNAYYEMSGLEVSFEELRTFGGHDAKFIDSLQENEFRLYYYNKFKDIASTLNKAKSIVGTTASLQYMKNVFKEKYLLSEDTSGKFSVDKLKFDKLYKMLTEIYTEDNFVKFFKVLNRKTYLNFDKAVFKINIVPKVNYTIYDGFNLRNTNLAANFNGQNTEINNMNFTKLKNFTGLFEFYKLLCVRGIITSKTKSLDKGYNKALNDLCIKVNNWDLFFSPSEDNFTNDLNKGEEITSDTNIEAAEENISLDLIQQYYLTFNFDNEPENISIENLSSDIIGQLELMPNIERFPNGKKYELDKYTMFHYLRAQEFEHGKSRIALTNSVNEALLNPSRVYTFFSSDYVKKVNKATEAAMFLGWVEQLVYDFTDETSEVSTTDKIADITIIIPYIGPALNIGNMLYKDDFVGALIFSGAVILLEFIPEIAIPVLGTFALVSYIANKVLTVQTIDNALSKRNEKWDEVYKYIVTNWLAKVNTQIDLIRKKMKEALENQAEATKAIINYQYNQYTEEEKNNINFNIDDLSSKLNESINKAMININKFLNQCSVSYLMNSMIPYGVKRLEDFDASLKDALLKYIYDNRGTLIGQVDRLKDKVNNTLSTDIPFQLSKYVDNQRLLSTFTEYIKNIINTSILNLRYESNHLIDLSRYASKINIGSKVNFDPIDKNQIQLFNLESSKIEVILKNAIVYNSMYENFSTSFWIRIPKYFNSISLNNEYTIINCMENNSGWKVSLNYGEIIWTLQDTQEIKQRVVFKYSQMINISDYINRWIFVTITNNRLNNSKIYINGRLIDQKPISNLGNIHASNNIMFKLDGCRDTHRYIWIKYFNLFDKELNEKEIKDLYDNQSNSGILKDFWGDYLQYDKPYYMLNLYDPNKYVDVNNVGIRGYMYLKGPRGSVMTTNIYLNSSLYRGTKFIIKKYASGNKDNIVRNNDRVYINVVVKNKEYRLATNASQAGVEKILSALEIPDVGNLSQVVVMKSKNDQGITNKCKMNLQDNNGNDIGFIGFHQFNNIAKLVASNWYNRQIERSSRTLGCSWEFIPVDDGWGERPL

| Compound | BoNT neutralization effects of tea-leaf extract ingredients: Effect [1] | BoNT neutralizing effect (in words) [1] | toxicity (in words) [2] |
| --- | --- | --- | --- |
| catechin | − | showed no neutralizing effect |  |
| O=c1c(O)cc([C@H]2Oc3cc(O)cc(O)c3C[C@H]2O)cc2c([C@H]3Oc4cc(O)cc(O)c4C[C@H]3O)cc(O)c(O)c12 [Theaflavin, theaflavin] | − | showed no neutralizing effect |  |
| O=C(OC[C@H]1O[C@@H](OC(=O)c2cc(O)c(O)c(OC(=O)c3cc(O)c(O)c(O)c3)c2)[C@H](OC(=O)c2cc(O)c(O)c(OC(=O)c3cc(O)c(O)c(O)c3)c2)[C@@H](OC(=O)c2cc(O)c(O)c(OC(=O)c3cc(O)c(O)c(O)c3)c2)[C@@H]1OC(=O)c1cc(O)c(O)c(OC(=O)c2cc(O)c(O)c(O)c2)c1)c1cc(O)c(O)c(OC(=O)c2cc(O)c(O)c(O)c2)c1 [Tannic Acid, tannic acid] | − | showed no neutralizing effect |  |
| thearubigin |  |  | no toxicity |
